Measured values as given in US20130274338A1, “PHARMACEUTICAL COMPOSITIONS COMPRISING DGLA, 15-OHEPA, AND/OR 15-HETRE AND METHODS OF REDUCING SEBUM PRODUCTION USING SAME” (priority 2012, published 2013).

Tested on: P. acnes
Assay: Agar dilution method, growth of P. acnes and MIC, combinations with a fatty acid spike
Assay type: cell-based, Propionibacterium acnes
Set-up: key to Growth Index Plate 1 / Growth Index Plate 2 / Growth Index Plate 3 / Growth Index Avg: +++: confluent growth (comparable to control); ++: less confluent growth; +: marked reduction in growth to multiple tiny, single colonies; −: no growth present
Procedure: Several compounds including fatty acids such as DGLA, 15-OHEPA, and 15-HETrE were tested to determine their capacity to inhibit the growth of P. acnes. In an exemplary method, an agar dilution method was used to determine the minimum inhibitory concentration (MIC) of each tested compound. Briefly, the agar dilution method involved preparing a series of concentrations of each compound (e.g., nicotinamide, benzoyl peroxide, adapalene, metronidazole, DGLA, 15-OHEPA, and 15-HETrE) in a Reinforced Clostridial Agar (RCA) media that facilitates growth of P. acnes under anaerobic conditions. An inoculum of P. acnes was prepared by incubation of P. acnes for approximately seven days at 35-37° C. to achieve a ≧1.0 OD600 inoculum of P. acnes in RCM broth. A portion of this inoculum was then added to the surface of each plate as a 10 μL spot and incubated at 35-37° C. for 72 hours or more. Growth of P. acnes was then observed and compared to control plates in which no compound has been added, and positive inhibition plates prepared with erythromycin. […] The growth of P. acnes in the presence of nicotinamide, benzoyl peroxide, adapalene, metronidazole, DGLA, 15-OHEPA, and 15-HETrE was determined with varying concentrations of the compound (see, Table 2). Next, the MIC was determined as the concentration at which a marked reduction (+) occurs in the appearance of growth on the test plate (as per Clinical and Laboratory Standards Institute M11-A7).
The compounds tested singly in Example 1 were tested in combination with one another to determine the capacity of the combination to inhibit the growth of P. acnes. In an exemplary method, the MIC was determined for each of the combination as described in Example 1. Briefly, test combinations included DGLA with nicotinamide, benzoyl peroxide, adapalene, or metronidazole; 15-HETrE with nicotinamide, benzoyl peroxide, adapalene, or metronidazole; and 15-OHEPA with nicotinamide, benzoyl peroxide, adapalene, or metronidazole. The tables below show the growth of P. acnes in the presence of 0.4 or 1.0 mg/mL DGLA with varying concentrations of nicotinamide, benzoyl peroxide, adapalene, or metronidazole (Table 3); the growth of P. acnes in the presence of 0.01 or 0.05 mg/mL 15-HETrE with varying concentrations of nicotinamide, benzoyl peroxide, adapalene, or metronidazole (Table 5); and the growth of P. acnes in the presence of 0.5 or 0.1 mg/mL 15-OHEPA with varying concentrations of nicotinamide, benzoyl peroxide, adapalene, or metronidazole (Table 7).

[1] = compound at 1 mg/mL + 0.01 mg/mL 15-HETrE
[2] = compound at 1 mg/mL + 0.05 mg/mL 15-HETrE
[3] = compound at 1 mg/mL + 0.05 mg/mL 15-OHEPA
[4] = compound at 1 mg/mL + 0.1 mg/mL 15-OHEPA
[5] = compound at 1 mg/mL + 0.4 mg/mL dGLA
[6] = compound at 1 mg/mL + 1.0 mg/mL dGLA
[7] = compound at 5 mg/mL + 0.01 mg/mL 15-HETrE
[8] = compound at 5 mg/mL + 0.05 mg/mL 15-HETrE
[9] = compound at 5 mg/mL + 0.05 mg/mL 15-OHEPA
[10] = compound at 5 mg/mL + 0.1 mg/mL 15-OHEPA
[11] = compound at 5 mg/mL + 0.4 mg/mL dGLA
[12] = compound at 5 mg/mL + 1.0 mg/mL dGLA
[13] = compound at 10 mg/mL + 0.01 mg/mL 15-HETrE
[14] = compound at 10 mg/mL + 0.05 mg/mL 15-HETrE
[15] = compound at 10 mg/mL + 0.05 mg/mL 15-OHEPA
[16] = compound at 10 mg/mL + 0.1 mg/mL 15-OHEPA
[17] = compound at 10 mg/mL + 0.4 mg/mL dGLA
[18] = compound at 10 mg/mL + 1.0 mg/mL dGLA
[19] = compound at 15 mg/mL + 0.01 mg/mL 15-HETrE
[20] = compound at 15 mg/mL + 0.05 mg/mL 15-HETrE
[21] = compound at 15 mg/mL + 0.05 mg/mL 15-OHEPA
[22] = compound at 15 mg/mL + 0.1 mg/mL 15-OHEPA
[23] = compound at 15 mg/mL + 0.4 mg/mL dGLA
[24] = compound at 15 mg/mL + 1.0 mg/mL dGLA
[25] = compound at 25 mg/mL + 0.01 mg/mL 15-HETrE
[26] = compound at 25 mg/mL + 0.05 mg/mL 15-HETrE
[27] = compound at 25 mg/mL + 0.05 mg/mL 15-OHEPA
[28] = compound at 25 mg/mL + 0.1 mg/mL 15-OHEPA
[29] = compound at 25 mg/mL + 0.4 mg/mL dGLA
[30] = compound at 25 mg/mL + 1.0 mg/mL dGLA

## NC(=O)c1cccnc1 [Nicotinamide]
[1]
  Growth Index Avg: +++
  Growth Index Plate 1: +++
  Growth Index Plate 2: +++
  Growth Index Plate 3: +++
[2]
  Growth Index Avg: −
  Growth Index Plate 1: −
  Growth Index Plate 2: −
  Growth Index Plate 3: −
[3]
  Growth Index Avg: +++
  Growth Index Plate 1: +++
  Growth Index Plate 2: +++
  Growth Index Plate 3: +++
[4]
  Growth Index Avg: −
  Growth Index Plate 1: −
  Growth Index Plate 2: −
  Growth Index Plate 3: −
[5]
  Growth Index Avg: +++
  Growth Index Plate 1: +++
  Growth Index Plate 2: +++
  Growth Index Plate 3: +++
[6]
  Growth Index Avg: +++
  Growth Index Plate 1: +++
  Growth Index Plate 2: +++
  Growth Index Plate 3: +++
[7]
  Growth Index Avg: +++
  Growth Index Plate 1: +++
  Growth Index Plate 2: +++
  Growth Index Plate 3: +++
[8]
  Growth Index Avg: −
  Growth Index Plate 1: −
  Growth Index Plate 2: −
  Growth Index Plate 3: −
[9]
  Growth Index Avg: +++
  Growth Index Plate 1: +++
  Growth Index Plate 2: +++
  Growth Index Plate 3: +++
[10]
  Growth Index Avg: −
  Growth Index Plate 1: −
  Growth Index Plate 2: −
  Growth Index Plate 3: −
[11]
  Growth Index Avg: +++
  Growth Index Plate 1: +++
  Growth Index Plate 2: +++
  Growth Index Plate 3: +++
[12]
  Growth Index Avg: +++
  Growth Index Plate 1: +++
  Growth Index Plate 2: +++
  Growth Index Plate 3: +++
[13]
  Growth Index Avg: ++
  Growth Index Plate 1: ++
  Growth Index Plate 2: ++
  Growth Index Plate 3: ++
[14]
  Growth Index Avg: −
  Growth Index Plate 1: −
  Growth Index Plate 2: −
  Growth Index Plate 3: −
[15]
  Growth Index Avg: +++
  Growth Index Plate 1: +++
  Growth Index Plate 2: +++
  Growth Index Plate 3: +++
[16]
  Growth Index Avg: −
  Growth Index Plate 1: −
  Growth Index Plate 2: −
  Growth Index Plate 3: −
[17]
  Growth Index Avg: +++
  Growth Index Plate 1: +++
  Growth Index Plate 2: +++
  Growth Index Plate 3: +++
[18]
  Growth Index Avg: ++
  Growth Index Plate 1: +
  Growth Index Plate 2: ++
  Growth Index Plate 3: ++
[19]
  Growth Index Avg: −
  Growth Index Plate 1: −
  Growth Index Plate 2: −
  Growth Index Plate 3: −
[20]
  Growth Index Avg: −
  Growth Index Plate 1: −
  Growth Index Plate 2: −
  Growth Index Plate 3: −
[21]
  Growth Index Avg: −
  Growth Index Plate 1: −
  Growth Index Plate 2: −
  Growth Index Plate 3: −
[22]
  Growth Index Avg: −
  Growth Index Plate 1: −
  Growth Index Plate 2: −
  Growth Index Plate 3: −
[23]
  Growth Index Avg: +
  Growth Index Plate 1: +
  Growth Index Plate 2: +
  Growth Index Plate 3: +
[24]
  Growth Index Avg: −
  Growth Index Plate 1: −
  Growth Index Plate 2: −
  Growth Index Plate 3: −
[25]
  Growth Index Avg: −
  Growth Index Plate 1: −
  Growth Index Plate 2: −
  Growth Index Plate 3: −
[26]
  Growth Index Avg: −
  Growth Index Plate 1: −
  Growth Index Plate 2: −
  Growth Index Plate 3: −
[27]
  Growth Index Avg: −
  Growth Index Plate 1: −
  Growth Index Plate 2: −
  Growth Index Plate 3: −
[28]
  Growth Index Avg: −
  Growth Index Plate 1: −
  Growth Index Plate 2: −
  Growth Index Plate 3: −
[29]
  Growth Index Avg: −
  Growth Index Plate 1: −
  Growth Index Plate 2: −
  Growth Index Plate 3: −
[30]
  Growth Index Avg: −
  Growth Index Plate 1: −
  Growth Index Plate 2: −
  Growth Index Plate 3: −
In combination with 15-HETrE
  growth of P. Acnes in combination with 15-HETrE, compared with 15-HETrE used alone: did not reduce the growth
In combination with 15-OHEPA
  growth of P. Acnes in combination with 15-OHEPA, compared with 15 OHEPA used alone: did not reduce the growth
In combination with DGLA
  growth of P. Acnes in combination with DGLA, compared with DGLA used alone: did not reduce the growth
